# Measured values as given in US20230015949A1, “NEISSERIA TREATMENT USING CANNABINOIDS” (priority 2019, published 2023).
# Like-named read-outs stand apart in the source and are kept apart here.
# What was measured:
# [1] = system: Neisseria gonorrhoeae; assay: Broth microdilution MIC assay, 30 isolates (Example 2); format: cell-based
# Protocol: In this study, the in vitro spectrum of activity of CBD was determined against 30 isolates comprised of reference strains from the WHO, isolates from the CDC antibiotic resistance bank, and clinical isolates from the Micromyx (MMX) repository, with different resistance phenotypes. Assays were conducted following guidelines recommended by the Clinical and Laboratory Standards Institute (CLSI; 1, 2) with the exception that broth microdilution was used instead of agar dilution.
# Stock solutions of all compounds were prepared on the day of testing using solvents recommended by CLSI. Stock solutions of all compounds were made at 101× the final testing concentration. CBD was supplied by Cerilliant (Round Rock, Tex.) as a 1 mg/mL methanolic solution which was stored at −20° C. after receipt. Prior to testing, using a 5 mL aliquot of the CBD methanolic solution, the methanol was dried off and the residual CBD was resuspended in 774 μL DMSO resulting in a 6.464 mg/mL solution.
# The test organisms evaluated in this study consisted of Neisseria gonorrhoeae isolates from the Micromyx repository and reference isolates from the American Type Culture Collection (ATCC; Manassas, Va.), Centers for Disease Control and Prevention (CDC; Atlanta, Ga.) or the National Collection of Type Cultures (NCTC; Public Health England, Salisbury, UK). Upon initial receipt at Micromyx, the organisms were sub-cultured onto an appropriate agar medium.
# Following incubation, colonies were harvested from these plates and cell suspensions prepared and frozen at −80° C. with a cryoprotectant. Prior to testing, N. gonorrhoeae isolates were streaked onto Chocolate Agar [Becton Dickinson, (BD), Sparks, Md.; Lot No. 922807]; Staphylococcus aureus ATCC 29213 tested for quality control (QC) purposes was streaked onto Trypticase Soy Agar with 5% Sheep Blood (TSA II; BD; Lot No. 9219399).
# For N. gonorrhoeae, a modified medium described by the ATCC as capable of supporting the growth of N. gonorrhoeae (Neisseria peptone medium) was used for the broth microdilution MIC assay. This medium contained 15 g Oxoid Special Peptone (Lot No. 1280296; Oxoid, Hampshire, UK), 1 g corn starch (Lot No. AD-13344-14; Ward's Science; Rochester, N.Y.), 5 g NaCl (Lot No. 57897; VWR, Radnor, Pa.), 4 g K2HPO4 (Lot No. SLBT7061; Sigma), and 1 g KH2PO4 (Lot No. SLBC1921V; Sigma). After autoclaving, the medium was centrifuged at 5,000×g for 10 min, the supernatant was passed through a 0.45 μm filter, and IsoVitaleX supplement (Lot No. 8323954; BD) was added at 1% (v/v).
# MIC values were determined using a broth microdilution procedure described by CLSI (1, 2). Automated liquid handlers (Multidrop 384, Labsystems, Helsinki, Finland; Biomek 2000 and Biomek FX, Beckman Coulter, Fullerton Calif.) were used to conduct serial dilutions and liquid transfers.
# To prepare the drug mother plates, which would provide the serial drug dilutions for the replicate daughter plates, the wells of columns 2 through 12 of standard 96-well microdilution plates (Costar 3795) were filled with 150 μl of the designated diluent for each row of drug. The test articles and comparator compounds (300 μl at 100× the highest concentration to be tested) were dispensed into the appropriate wells in column 1. The Biomek 2000 was then used to make 2-fold serial dilutions in the mother plates from column 1 through column 11. The wells of column 12 contained no drug and served as the organism growth control wells for the assay.
# The daughter plates were loaded with 190 μL per well of the appropriate test medium for the tested organism using the Multidrop 384. The daughter plates were completed on the Biomek FX instrument which transferred 2 μL of drug solution from each well of a mother plate to the corresponding well of each daughter plate in a single step. Daughter plates for the testing of anaerobes were allowed to pre-reduce in the Bactron II anaerobe chamber for 2 hr prior to inoculation.
# [2] = system: Staphylococcus aureus ATCC 29213; conditions: S. aureus ATCC 29213, CLSI QC ranges shown in parentheses, cited from earlier work
# [3] = system: Staphylococcus aureus ATCC 29213; assay: Broth microdilution MIC assay, quality control strain (Example 2); format: cell-based; conditions: ATCC29213, S. aureus ATCC 29213 (QC), CAMHB
# How it was run: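 CLSI broth microdilution in cation-adjusted Mueller Hinton broth, 2-fold serial drug dilutions, inoculum about 5×10^5 CFU/mL. Plates incubated 16 to 20 hr at 35° C in ambient air. MIC is the lowest concentration inhibiting visible growth.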
# [4] = 30 isolates of N. gonorrhoeae, broth microdilution, MIC distribution
# [5] = 30 isolates, broth dilution assay, MIC distribution (Table 6)
compound,measurement,setting,value
"CC[C@H]1OC(=O)[C@H](C)[C@@H](O[C@H]2C[C@@](C)(OC)[C@@H](O)[C@H](C)O2)[C@H](C)[C@@H](O[C@@H]2O[C@H](C)C[C@H](N(C)C)[C@H]2O)[C@](C)(O)C[C@@H](C)CN(C)[C@H](C)[C@@H](O)[C@]1(C)O [AZI, azithromycin]",MIC,[1],0.25 µg/mL
same,MIC90,"[1]; 30 isolates of N. gonorrhoeae, broth microdilution",>8 µg/mL
same,Number of isolates at MIC value 0.015 μg/mL,[1]; [4],0
same,Number of isolates at MIC value 0.03 μg/mL,[1]; [4],0
same,Number of isolates at MIC value 0.06 μg/mL,[1]; [4],2
same,Number of isolates at MIC value 0.5 μg/mL,[1]; [4],2
same,Number of isolates at MIC value 1 μg/mL,[1]; [4],1
same,Number of isolates at MIC value 2 μg/mL,[1]; [4],2
same,Number of isolates at MIC value 4 μg/mL,[1]; [4],1
same,Number of isolates at MIC value 8 μg/mL,[1]; [4],1
same,Number of isolates at MIC value >8 μg/mL,[1]; [4],4
same,Number of isolates at MIC 0.08 μg mL^−1,[1]; [5],0
same,Number of isolates at MIC ≤0.004 μg mL^−1,[1]; [5],0
same,MIC,"[1]; Neisseria gonorrhoeae, ATCC49226, N. gonorrhoeae ATCC 49226 (QC), broth microdilution, read-out: MIC",0.25 µg/mL
same,MIC,"[1]; Neisseria gonorrhoeae, N. gonorrhoeae CDC 0165 (CIP-R, AZI MIC 1), broth microdilution, read-out: MIC",1 µg/mL
same,MIC,"[1]; Neisseria gonorrhoeae, N. gonorrhoeae CDC 0166 (CIP-R, AZI MIC 1), broth microdilution, read-out: MIC",0.5 µg/mL
same,MIC,"[1]; Neisseria gonorrhoeae, N. gonorrhoeae CDC 0167 (CIP-S, AZI MIC 8), broth microdilution, read-out: MIC",> 8 µg/mL
same,MIC,"[1]; Neisseria gonorrhoeae, N. gonorrhoeae CDC 0172 (CIP-R, AZI MIC 0.5), broth microdilution, read-out: MIC",0.25 µg/mL
same,MIC,"[1]; Neisseria gonorrhoeae, N. gonorrhoeae CDC 0175 (CIP-S, AZI MIC 16), broth microdilution, read-out: MIC",> 8 µg/mL
same,MIC,"[1]; Neisseria gonorrhoeae, N. gonorrhoeae CDC 0177 (CIP-S, AZI MIC 2), broth microdilution, read-out: MIC",2 µg/mL
same,MIC,"[1]; Neisseria gonorrhoeae, N. gonorrhoeae CDC 0181 (CIP-S, AZI MIC 256), broth microdilution, read-out: MIC",> 8 µg/mL
same,MIC,"[1]; Neisseria gonorrhoeae, N. gonorrhoeae CDC 0194 (CRO-NS, CIP-S, AZI MIC 0.5), broth microdilution, read-out: MIC",0.25 µg/mL
same,MIC,"[1]; Neisseria gonorrhoeae, N. gonorrhoeae MMX 6921 (CIP-R), broth microdilution, read-out: MIC",8 µg/mL
same,MIC,"[1]; Neisseria gonorrhoeae, N. gonorrhoeae MMX 6938 (CIP-S), broth microdilution, read-out: MIC",0.25 µg/mL
same,MIC,"[1]; Neisseria gonorrhoeae, N. gonorrhoeae MMX 10409 (CIP-R), broth microdilution, read-out: MIC",0.25 µg/mL
same,MIC,"[1]; Neisseria gonorrhoeae, N. gonorrhoeae MMX 10410 (CIP-S), broth microdilution, read-out: MIC",0.12 µg/mL
same,MIC,"[1]; Neisseria gonorrhoeae, N. gonorrhoeae MMX 10447 (CIP-S), broth microdilution, read-out: MIC",0.06 µg/mL
same,MIC,"[1]; Neisseria gonorrhoeae, N. gonorrhoeae MMX 10450 (CIP-S), broth microdilution, read-out: MIC",0.12 µg/mL
same,MIC,"[1]; Neisseria gonorrhoeae, N. gonorrhoeae MMX 10452 (CIP-R), broth microdilution, read-out: MIC",0.12 µg/mL
same,MIC,"[1]; Neisseria gonorrhoeae, N. gonorrhoeae MMX 10454 (CIP-R), broth microdilution, read-out: MIC",0.12 µg/mL
same,MIC,"[1]; Neisseria gonorrhoeae, NCTC13477, N. gonorrhoeae NCTC 13477 (WHO F; CIP-S, AZI MIC […]), broth microdilution, read-out: MIC",0.06 µg/mL
same,MIC,"[1]; Neisseria gonorrhoeae, NCTC13478, N. gonorrhoeae NCTC 13478 (WHO G; CIP-I, AZI MIC […]), broth microdilution, read-out: MIC",0.25 µg/mL
same,MIC,"[1]; Neisseria gonorrhoeae, NCTC13479, N. gonorrhoeae NCTC 13479 (WHO K; CIP-R, AZI MIC […]), broth microdilution, read-out: MIC",0.25 µg/mL
same,MIC,"[1]; Neisseria gonorrhoeae, NCTC13480, N. gonorrhoeae NCTC 13480 (WHO L; CIP-R, AZI MIC 0.5), broth microdilution, read-out: MIC",0.25 µg/mL
same,MIC,"[1]; Neisseria gonorrhoeae, NCTC13481, N. gonorrhoeae NCTC 13481 (WHO M; CIP-R, AZI MIC […]), broth microdilution, read-out: MIC",0.12 µg/mL
same,MIC,"[1]; Neisseria gonorrhoeae, NCTC13482, N. gonorrhoeae NCTC 13482 (WHO N; CIP-R, AZI MIC […]), broth microdilution, read-out: MIC",0.12 µg/mL
same,MIC,"[1]; Neisseria gonorrhoeae, NCTC13483, N. gonorrhoeae NCTC 13483 (WHO O; CIP-S, AZI MIC […]), broth microdilution, read-out: MIC",0.25 µg/mL
same,MIC,"[1]; Neisseria gonorrhoeae, NCTC13484, N. gonorrhoeae NCTC 13484 (WHO P; CIP-S, AZI MIC 4), broth microdilution, read-out: MIC",4 µg/mL
same,MIC,"[1]; Neisseria gonorrhoeae, NCTC13817, N. gonorrhoeae NCTC 13817 (WHO U; CIP-S, AZI MIC 4), broth microdilution, read-out: MIC",2 µg/mL
same,MIC,"[1]; Neisseria gonorrhoeae, NCTC13818, N. gonorrhoeae NCTC 13818 (WHO V; CIP-R, AZI MIC >256), broth microdilution, read-out: MIC",> 8 µg/mL
same,MIC,"[1]; Neisseria gonorrhoeae, NCTC13819, N. gonorrhoeae NCTC 13819 (WHO W; CIP-R, AZI MIC 0.5), broth microdilution, read-out: MIC",0.25 µg/mL
same,MIC,"[1]; Neisseria gonorrhoeae, NCTC13820, N. gonorrhoeae NCTC 13820 (WHO X; CRO-NS, CIP-R, AZI MIC 0.5), broth microdilution, read-out: MIC",0.25 µg/mL
same,MIC,"[1]; Neisseria gonorrhoeae, NCTC13821, N. gonorrhoeae NCTC 13821 (WHO Y; CIP-R, AZI MIC 1), broth microdilution, read-out: MIC",0.5 µg/mL
same,MIC50,"[1]; Neisseria gonorrhoeae, 30 isolates of N. gonorrhoeae, broth microdilution, read-out: MIC50",0.25 µg/mL
same,MIC90,"[1]; Neisseria gonorrhoeae, 30 isolates of N. gonorrhoeae, broth microdilution, read-out: MIC90",> 8 µg/mL
same,MIC,"[1]; Neisseria gonorrhoeae, 30 isolates of N. gonorrhoeae, broth microdilution, read-out: MIC Mode",0.25 µg/mL
same,CLSI QC range of MIC,[2],0.5 to 2 µg/mL
same,CLSI QC range of MIC,[2]; listed as Azithromycin,(0.5-2)^1 μg/mL
same,MIC,[3],0.5 µg/mL
